Assay results taken from ChEMBL document CHEMBL5584268, “Dactylfungins and Tetralones: Bioactive Metabolites from a Nematode-Associated Laburnicola nematophila” (J Nat Prod, 2024).
Values after ≈ are worked out from the molar mass of the structure shown. Active and inactive are the calls of the source. No cut-off for these calls is given here.

Tests used:
[1] = tested on: Rhodotorula glutinis; experiment: Antimicrobial activity against Rhodotorula glutinis DSM 10134 measured after 72 hrs by serial dilution assay; format: functional
[2] = tested on: Caenorhabditis elegans; experiment: Nematicidal activity against Caenorhabditis elegans at 10 to 100 ug/ml incubated for 18 hrs by stereomicroscopic analysis; format: functional, organism-based; settings: dose 10-100 µg/ml
[3] = tested on: Aspergillus fumigatus; experiment: Antimicrobial activity against azole-resistant Aspergillus fumigatus CCF 6651 measured after 72 hrs by serial dilution assay; format: functional
[4] = tested on: Mucor plumbeus; experiment: Antimicrobial activity against Mucor plumbeus CCF 2612 up to 67 ug/ml measured after 48 hrs by serial dilution assay; format: functional, organism-based; settings: dose <= 67.0 µg/ml
[5] = tested on: Aspergillus fumigatus; experiment: Antimicrobial activity against Aspergillus fumigatus ATCC 204305 measured after 72 hrs by serial dilution assay; format: functional
[6] = tested on: Staphylococcus aureus; experiment: Antimicrobial activity against Staphylococcus aureus DSM 346 measured after 72 hrs by serial dilution assay; format: functional
[7] = tested on: Aspergillus fumigatus; experiment: Antimicrobial activity against azole-resistant Aspergillus fumigatus CCF 6674 measured after 72 hrs by serial dilution assay; format: functional
[8] = tested on: Aspergillus fumigatus; experiment: Antimicrobial activity against Aspergillus fumigatus CCF 3522 measured after 48 hrs by serial dilution assay; format: functional
[9] = tested on: Cryptococcus neoformans; experiment: Antimicrobial activity against Cryptococcus neoformans CCF 1081 measured after 48 hrs by serial dilution assay; format: functional
[10] = tested on: Candida albicans; experiment: Antimicrobial activity against Candida albicans CCM 8215 up to 67 ug/ml measured after 12 hrs by serial dilution assay; format: functional, organism-based; settings: dose <= 67.0 µg/ml
[11] = tested on: KB 3-1; experiment: Cytotoxicity against human KB-3-1 cells by MTT assay; format: functional, cell-based
[12] = tested on: Staphylococcus aureus; experiment: Antimicrobial activity against Staphylococcus aureus DSM 346 up to 67 ug/ml measured after 72 hrs by serial dilution assay; format: functional, organism-based; settings: dose <= 67.0 µg/ml
[13] = tested on: Rhodotorula glutinis; experiment: Antimicrobial activity against Rhodotorula glutinis DSM 10134 up to 67 ug/ml measured after 72 hrs by serial dilution assay; format: functional, organism-based; settings: dose <= 67.0 µg/ml
[14] = tested on: L929; experiment: Cytotoxicity against mouse L929 cells by MTT assay; format: toxicity, cell-based
[15] = tested on: Mucor plumbeus; experiment: Antimicrobial activity against Mucor plumbeus CCF 2612 measured after 48 hrs by serial dilution assay; format: functional
[16] = tested on: Candida albicans; experiment: Antimicrobial activity against Candida albicans CCM 8215 measured after 12 hrs by serial dilution assay; format: functional
[17] = tested on: Aspergillus fumigatus; experiment: Antimicrobial activity against azole-resistant Aspergillus fumigatus CCF 6651 up to 67 ug/ml measured after 72 hrs by serial dilution assay; format: functional, organism-based; settings: dose <= 67.0 µg/ml
[18] = tested on: Cryptococcus neoformans; experiment: Antimicrobial activity against Cryptococcus neoformans CCF 1081 up to 67 ug/ml measured after 48 hrs by serial dilution assay; format: functional, organism-based; settings: dose <= 67.0 µg/ml

Compound	Activity [2]	MIC [3]	MIC [5]	MIC [7]	MIC [9]	Activity [11]	Activity [12]	Activity [13]	Activity [14]	other results
NYSTATIN	–	–	–	–	–	–	–	–	–	MIC [1]: 4.2 µg/mL
CC[C@H](C)C[C@@H](C)/C=C(C)/C=C/C[C@H](C)[C@H](O)[C@@H](C)/C=C(C)/C=C/[C@H](O)C(C)(C)c1cc(O)c([C@H]2O[C@@H](CO)C[C@@H](O)[C@@H]2O)c(=O)o1	inactive	2.08 µg/mL (≈ 3.15 µM)	0.52 µg/mL (≈ 0.787 µM)	0.52 µg/mL (≈ 0.787 µM)	4.15 µg/mL (≈ 6.28 µM)	–	–	–	–	Activity [4]: inactive; MIC [6]: 66.6 µg/mL (≈ 101 µM); MIC [8]: 0.52 µg/mL (≈ 0.787 µM); MIC [1]: 8.3 µg/mL (≈ 12.6 µM); Activity [10]: inactive
GENTAMICIN	–	–	–	–	–	–	–	–	–	MIC [6]: 0.21 µg/mL
COc1cc2c(c(O)c1Cc1c(O)c(O)c3cc(C)oc(=O)c3c1O)C(=O)CC[C@H]2O	inactive	–	–	–	–	Active	inactive	inactive	Toxic	–
C[C@@H]1[C@H](O)[C@@H](C)/C=C/C=C/C=C/C=C/C=C/C=C/C=C/[C@H](O[C@@H]2O[C@H](C)[C@@H](O)[C@H](N)[C@@H]2O)C[C@@H]2O[C@](O)(C[C@@H](O)C[C@@H](O)[C@H](O)CC[C@@H](O)C[C@@H](O)CC(=O)O[C@H]1C)C[C@H](O)[C@H]2C(=O)O [AMPHOTERICIN B]	–	0.16 µg/mL (≈ 0.173 µM)	0.31 µg/mL (≈ 0.335 µM)	2.5 µg/mL (≈ 2.71 µM)	2.5 µg/mL (≈ 2.71 µM)	–	–	–	–	MIC [15]: 0.31 µg/mL (≈ 0.335 µM); MIC [8]: 0.31 µg/mL (≈ 0.335 µM)
COc1cc2c(c(O)c1CO)C(=O)CC[C@H]2O	inactive	–	–	–	–	inactive	inactive	inactive	Non-Toxic	–
CC[C@H](C)C[C@@H](C)/C=C(C)/C=C/C[C@H](C)[C@H](O)[C@@H](C)/C=C(C)/C=C/[C@H](O)[C@@H](C)c1cc(O)c([C@H]2O[C@@H](CO)C[C@@H](O)[C@@H]2O)c(=O)o1	–	0.52 µg/mL (≈ 0.804 µM)	8.32 µg/mL (≈ 12.9 µM)	0.52 µg/mL (≈ 0.804 µM)	4.15 µg/mL (≈ 6.42 µM)	–	–	–	–	MIC [15]: 1.04 µg/mL (≈ 1.61 µM); MIC [16]: 8.3 µg/mL (≈ 12.8 µM)
CC[C@H](C)[C@H](O)[C@@H](C)/C=C(C)/C=C/C[C@H](C)[C@H](O)[C@@H](C)/C=C(C)/C=C/[C@H](O)C(C)(C)c1cc(O)c([C@H]2O[C@@H](CO)C[C@@H](O)[C@@H]2O)c(=O)o1	inactive	–	0.26 µg/mL (≈ 0.384 µM)	16.6 µg/mL (≈ 24.5 µM)	–	–	inactive	inactive	–	Activity [17]: inactive; Activity [4]: inactive; Activity [18]: inactive; Activity [10]: inactive
COc1cc2c(c(O)c1/C=C/C(C)=O)C(=O)CC[C@H]2O	inactive	–	–	–	–	Active	inactive	inactive	Toxic	–
